Measured values: patent US5863913A, “Aromatic compound and pharmaceutical composition” (Kureha Chemical Industry Co., Ltd., priority 1996, dated 1999)

Experiments:
ICR female mice = experiment: Acute toxicity, single oral dose in mice; settings: mouse, in vivo
Protocol: The aromatic compounds of the formula (I) according to the present invention were orally administered to mice at the dose of 500 mg/kg, but no fatalities were observed over a period of one week.
Five-week-old ICR female mice (5 mice per group) were bred for acclimation for a week. Then, the compounds of the present invention were dissolved in water, and orally administered to the mice in a single dosage (500 mg/kg).

[1] = target: T1, angiotensin II receptor subtype 1 (AT1) (Oryctolagus cuniculus, UniProt P34976); experiment: Binding to receptors: angiotensin II receptor subtype 1 (AT1); design: species or system rabbits (adrenal glands); settings: rabbit adrenal glands, tracer 3H-angiotensin II
T1 construct: receptor : from adrenal glands in rabbits; from tissue; host or cells: rabbit adrenal glands
T1 sequence (P34976 1-359): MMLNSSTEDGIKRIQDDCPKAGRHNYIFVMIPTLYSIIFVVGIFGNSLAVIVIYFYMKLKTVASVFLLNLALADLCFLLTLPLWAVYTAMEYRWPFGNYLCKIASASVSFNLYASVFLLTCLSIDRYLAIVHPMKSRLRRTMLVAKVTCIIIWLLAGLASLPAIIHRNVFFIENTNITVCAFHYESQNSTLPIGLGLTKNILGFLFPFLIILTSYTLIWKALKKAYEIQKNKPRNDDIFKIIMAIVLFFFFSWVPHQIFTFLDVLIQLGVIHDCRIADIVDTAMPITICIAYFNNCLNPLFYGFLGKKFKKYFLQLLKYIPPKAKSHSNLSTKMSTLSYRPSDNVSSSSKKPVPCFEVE
Protocol: (§1) In this Example, the affinity to the angiotensin II receptor subtype 1 or subtype 2 was evaluated by a binding assay in accordance with the method described in Biochem. Pharmacol., 33, 4057-4062 (1984).
(§2) Specifically, the measurement of the total binding in the presence of each drug was performed as follows:
(§3) A mixture (final volume=0.25 ml) of a drug in a given concentration (the drug was dissolved in DMSO, and diluted to a double volume with a buffer attached to a drug discovery system to prepare a sample for the assay; 0.025 ml), a tracer (0.025 ml), and receptors (0.2 ml) was incubated [in the case of the angiotensin II receptor subtype 1 (AT1), at room temperature for 3 hours, and in the case of the subtype 2 (AT2), at 37° C. for 1 hour]. Then, the reaction mixture was filtered with suction (GF/C filter was used in AT1, and GF/B filter was used in AT2). The filter papers after filtration with suction (the tracer bound to the receptors) were counted by a γ-well counter (ARC-500, Aloka). The non-specific bindings were measured by repeating the above method, except that a large excess amount of a displacer was added. The specific binding of the drug in the given concentration was calculated by subtracting the non-specific binding from the total binding, respectively.
receptor : from adrenal glands in rabbits
tracer : ^3 Hangiotensin II

[2] = target: T2, angiotensin II receptor subtype 2 (AT2) (Bos taurus, UniProt G5E6F7); experiment: Binding to receptors: angiotensin II receptor subtype 2 (AT2); settings: bovine cerebellar cortex, tracer 125I-Tyr4-angiotensin II
T2 construct: receptor : from cerebellar cortex in bovine; from tissue; host or cells: bovine cerebellar cortex
T2 sequence (G5E6F7 1-362): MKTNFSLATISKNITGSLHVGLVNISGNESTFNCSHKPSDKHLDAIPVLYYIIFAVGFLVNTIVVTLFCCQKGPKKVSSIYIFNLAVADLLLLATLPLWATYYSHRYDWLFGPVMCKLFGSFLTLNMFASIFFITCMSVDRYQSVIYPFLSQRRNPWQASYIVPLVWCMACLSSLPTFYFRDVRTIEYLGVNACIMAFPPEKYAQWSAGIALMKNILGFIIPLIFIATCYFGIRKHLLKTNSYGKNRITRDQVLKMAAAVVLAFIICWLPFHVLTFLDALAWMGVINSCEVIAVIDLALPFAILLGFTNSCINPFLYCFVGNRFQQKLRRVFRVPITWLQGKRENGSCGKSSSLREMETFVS
Protocol: as §1, §2, §3
In AT1 and AT2, the percentages found to inhibit the bindings of radioactive ligands (tracer) to receptors by the drugs to be tested (IC50 value of concentration to show 50% inhibition, or binding inhibition % in 100 μM) were measured, using the drugs to be tested and control drugs in the given concentration.
receptor : from cerebellar cortex in bovine
tracer : ^125 ITyr^4angiotensin II
control drug : angiotensin II (human)
(displacer) : angiotensin II (human)

[3] = test system: kidney disease model rats; experiment: Action to lower blood pressure in kidney disease model rats (tail cuff); assay type: in vivo, Sprague-Dawley female rats; settings: for Blood Pressure: systolic, average of 8 rats, 20 mg/kg with drinking water, two days after administration, control 210
Protocol: (§4) The compounds of the present invention and the reference substance were administered with drinking water to kidney disease model rats, and the action of lowering the blood pressure was observed. The kidney disease model rats were prepared by a ligature of branches of renal artery in accordance with a conventional method. Namely, the left hilum renalis of Sprague-Dawley female rats was exposed under anesthesia, and one of four secondary branches of the renal artery was left unligated, while the remaining three branches were ligated, respectively. After a week, the hilum renalis (artery, vein, and ureter) of the right kidney were further ligated to thereby prepare rats whose renal function was lowered to approximately 1/8 of the normal function. Each group consisted of eight rats. The drugs to be tested (20 mg/kg) were administered to each administering group, and only water was administered to a control group. Two days after the administration, the systolic blood pressure was measured by the tail cuff method using a blood pressure measuring apparatus (UR5000; Ueda).

[4] = test system: kidney disease model rats; experiment: Renal function indicatory value in kidney disease model rats; assay type: in vivo, Sprague-Dawley female rats; settings: 20 mg/kg/day with drinking water, six weeks; for Creatinine clearance: 24 hours urine, control 0.22; for Creatinine / Blood urea nitrogen: serum; for Creatinine: control 2.0; for Blood urea nitrogen: control 100
Protocol: as §4, with “The” for “The compounds of the present invention and the reference substance were administered with drinking water to kidney disease model rats, and the action of lowering the blood pressure was observed. The”
The rats in each group were allowed to freely take up food. […] To the rats in the control group, only water was administered every day. After six weeks, 0.2 ml of blood was collected from the carotid artery of the rats under anesthesia, and centrifuged to obtain serum. Using 25 μl of the serum, the serum creatinine (Scr) was measured by a creatinine analytical instrument (Beckman). Using 10 μl of the serum, the blood urea nitrogen (BUN) was measured by a BUN analytical instrument (Beckman). The creatinine clearance was evaluated as follows:
After the serum creatinine measurement, rats were placed in urinary metabolic cages for 24 hours to collect urine. A urinary creatine concentration (Ucr) was measured by a creatinine analytical instrument, and a total volume of urination (Uvol) was also measured. The creatinine clearance (CCr) was calculated by the following formula: [formula]

[5] = test system: kidney disease model rats; experiment: Survival time of kidney diseased animals; assay type: in vivo, Sprague-Dawley female rats; settings: 20 mg/kg/day with drinking water, observation period eight weeks (upper limit); control 5.0
Protocol: as §4
The kidney disease model rats were prepared as in Example 54. Twenty-two groups (8 rats per group) were prepared in a manner such that there was no major difference between the groups in the serum creatinine value and the blood urea nitrogen value indicating renal function. The rats in each group were allowed to freely take up food. […] To the rats in the control group, only water was administered every day. If kidney diseases are aggravated, the rat will die of uremia. Thus, the survival time was observed as a comprehensive indication of the improvement of the effect on the kidney diseases. The observation period was eight weeks. Thus if all rats survived, the average survival time is eight weeks, and is an upper limit.

SMILES | Number of deaths/number of survivals (ICR female mice) | inhibition at 100 µM [1] [%] | inhibition at 100 µM [2] [%] | Blood Pressure [3] [mmHg] | Creatinine clearance [4] [mL/min] | Creatinine [4] [mg/dL] | Blood urea nitrogen [4] [mg/dL] | Average survival time [5] [weeks] | action of lowering the blood pressure ([3]; result in words, in comparison with the control group)
CCCCC(=O)N(Cc1ccc(C(=O)OCC(N)C(=O)OCC)cc1)c1cc(C(=O)N2CCOCC2)ccc1N(C)C (stereo not drawn) [Compound No. 4, 3-N-[[[[4-(2'-amino-2'-ethoxycarbonyl)ethoxycarbonyl]phenyl]methyl]valeramido]-4-dimethyl aminobenzoic acid morpholide] | 0/5 | 11 | 0 | 204 | 0.37 | 1.4 | 72 | 6.9 | –
CCCCc1nc(Cl)c(CO)n1Cc1ccc(-c2ccccc2-c2nn[nH]n2)cc1 [DuP753, reference compound] | – | – | – | 130 | 0.32 | 1.6 | 80 | 6.9 | clearly exhibited the action of lowering the blood pressure
CCCCC(=O)N(Cc1ccc(C(=O)OC2CNC(C(=O)OCC)C2)cc1)c1cc(C(=O)N2CCOCC2)ccc1N(C)C (stereo not drawn) [Compound No. 5, 4-dimethylamino-3-N-[[[[4-(2'-ethoxycarbonylpyrrolidin-4'-yloxy)carbonyl]phenyl]methyl]valeramido]benzoic acid morpholide] | 0/5 | 11 | 0 | 200 | 0.30 | 1.6 | 82 | 6.9 | –
CCCCC(=O)N(Cc1ccc(C(=O)O)cc1)c1cc(C(=O)N(CC)CCN(CC)CC)ccc1C(C)C [Compound No. 17] | 0/5 | 4 | 23 | 201 | 0.33 | 1.5 | 78 | 6.9 | –
CCCCCCCC(=O)N(Cc1ccc(C(=O)O)cc1)c1cc(C(=O)N2CCN(C)CC2)ccc1N(C)C [Compound No. 14, 3-[[(4-carboxyphenyl)methyl]n-octanamido]-4-dimethylaminobenzoic acid 4'-methylpiperazide] | 0/5 | 0 | 0 | 205 | 0.27 | 1.7 | 86 | 6.3 | –
CCCCC(=O)N(Cc1ccc(C(=O)OCC)cc1)c1cc(C(=O)N2CCN(C)CC2)ccc1C(C)C [Compound No. 16, 3-[[(4-ethoxycarbonylphenyl)methyl]valeramido]-4-i-propylbenzoic acid 4'-methylpiperazide] | 0/5 | 0 | 0 | 202 | 0.33 | 1.5 | 78 | 6.9 | –
CCCCC(=O)N(Cc1ccc(C(=O)O)cc1)c1cc(C(=O)N2CCN(C)CC2)ccc1N(C)C [Compound No. 10, 3-[[(4-carboxyohenyl)methyl]valeramido]-4-dimethylaminobenzoic acid 4'-methylpiperazide] | 0/5 | 13 | 0 | 206 | 0.32 | 1.6 | 81 | 6.9 | –
